# Measured values from US9790169B2, “IDO inhibitors” (BRISTOL-MYERS SQUIBB COMPANY, priority 2015, dated 2017).
# Target: human IDO1 (Homo sapiens, UniProt P14902)
# Assay: Assessment of human IDO-1 inhibitory activity in HEK cells (human IDO1/HEK293 cells, kynurenine read-out with Ehrlich reagent, absorbance 490 nm)
# Type: cell-based
# Design: expressed in transfected cells
# Settings: HEK Human IDO-1 cellular assay
# Description: Exemplary compounds were tested for inhibition of IDO activity.
# Assessment of Human IDO-1 Inhibitory Activity in HEK Cells
# HEK293 cells were transfected with a pCDNA-based mammalian expression vector harboring human IDO1 cDNA (NM 002164.2) by electroporation. They were cultured in medium (DMEM with 10% FBS) containing 1 mg/ml G418 for two weeks. Clones of HEK293 cells that stably expressed human IDO1 protein were selected and expanded for IDO inhibition assay.
# The human IDO1/HEK293 cells were seeded at 10,000 cells per 50 μL per well with RPMI/phenol red free media contains 10% FBS in a 384-well black wall clear bottom tissue culture plate (Matrix Technologies LLC) 100 nL of certain concentration of compound was then added to each well using ECHO liquid handling systems. The cells were incubated for 20 hours in 37° C. incubator with 5% CO2.
# The compound treatments were stopped by adding trichloroacetic acid (Sigma-Aldrich) to a final concentration at 0.2%. The cell plate was further incubated at 50° C. for 30 minute. The equal volume supernatant (20 μL) and 0.2% (w/v) Ehrlich reagent (4-dimethylaminobenzaldehyde, Sigma-Aldrich) in glacial acetic acid were mixed in a new clear bottom 384-well plate. This plate was then incubated at room temperature for 30 minute. The absorbance at 490 nm was measured on Envision plate reader.
# Compound IC50 values were calculated using the counts of 500 nM of a reference standard treatment as one hundred percent inhibition, and counts of no compound but DMSO treatment as zero percent inhibition.
# Chain of human IDO1 (P14902 whole entry): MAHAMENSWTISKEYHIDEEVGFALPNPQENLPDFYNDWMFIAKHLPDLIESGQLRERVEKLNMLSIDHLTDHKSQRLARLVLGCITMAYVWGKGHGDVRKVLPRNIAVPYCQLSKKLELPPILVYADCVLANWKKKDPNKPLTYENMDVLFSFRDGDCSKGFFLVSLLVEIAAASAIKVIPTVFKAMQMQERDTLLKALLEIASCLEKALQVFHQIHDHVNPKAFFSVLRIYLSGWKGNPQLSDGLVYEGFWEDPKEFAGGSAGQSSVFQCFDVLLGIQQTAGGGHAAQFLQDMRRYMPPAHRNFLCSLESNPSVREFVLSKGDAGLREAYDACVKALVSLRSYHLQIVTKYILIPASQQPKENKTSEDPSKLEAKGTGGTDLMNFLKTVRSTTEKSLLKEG
row,IC50,Structure (SMILES)
1,< 50 nM,"CCN(c1ccc([C@@H](COC)CC(=O)NS(C)(=O)=O)cc1Nc1ccc(C#N)cc1)C1CCOCC1 (stereo in doubt) [Example 1077, 3-(3-((4-Cyanophenyl)amino)-4-(ethyl(tetrahydro-2H-pyran-4-yl)amino)phenyl)-4-methoxy-N-(methylsulfonyl)butanamide]"
2,> 50 nM,"COCC(CC(=O)O)c1ccc(N(CC2CC2)C2CCOCC2)c(NC(=O)Nc2ccc(C)cc2)c1 (single isomer, unassigned) [Example 676, 3-(4-((Cyclopropylmethyl)(tetrahydro-2H-pyran-4-yl)amino)-3-(3-(p-tolyl)ureido)phenyl)-4-methoxybutanoic acid]"
3,< 5 nM,"CC[C@@H](CC(=O)O)c1ccc(N(CC)C2CCOCC2)c(Nc2ccc(OCC3CC3)cc2)c1 (single isomer, unassigned) [Example 476]"
4,< 50 nM,"CCN(c1ccc([C@H](COC)CC(=O)O)cc1NC(=O)Nc1ccc(Cl)cc1F)C1CCOCC1 (single isomer, unassigned) [Example 434]"
5,< 50 nM,"CCOc1ncc(Nc2cc([C@@H](COC)CC(=O)O)ccc2N(CC)C2CCOCC2)cn1 (single isomer, unassigned) [Example 351]"
6,> 50 nM,"COCC(CC(=O)O)c1ccc(N(CC2CC2)C2CCOCC2)c(Nc2ccc(Cl)cc2)c1 (single isomer, unassigned) [Example 690, 3-(3-((4-chlorophenyl)amino)-4-((cyclopropylmethyl) (tetrahydro-2H-pyran-4-yl)amino)phenyl)-4-methoxybutanoic acid]"
7,< 50 nM,"CCOc1ncc(Nc2cc([C@@H](CC)CC(=O)O)ccc2N(CC(C)(C)O)C2CCCCC2)cn1 (single isomer, unassigned) [Example 229]"
8,< 50 nM,"COCC(CC(=O)O)c1ccc(N(CC(C)C)CC(C)C)c(NC(=O)Nc2cc(C)on2)c1 (racemic) [Example 998, (+/−)-3-(4-(Diisobutylamino)-3-(3-(5-methylisoxazol-3-yl)ureido)phenyl)-4-methoxybutanoic acid]"
9,< 5 nM,"Cc1ccc(NC(=O)Nc2cc(C(C)CC(=O)O)c(F)cc2N(CC(C)C)C2CCCCC2)cc1 (racemic) [Example 955, (+/−)-3-(4-(Cyclohexyl(isobutyl)amino)-2-fluoro-5-(3-(p-tolyl)ureido)phenyl)butanoic acid]"
10,< 50 nM,"CCOc1ncc(Nc2cc([C@@H](CC)CC(=O)NS(C)(=O)=O)ccc2N(CC)C2CCOCC2)cn1 (stereo in doubt) [Example 1076, 3-(3-((2-Ethoxypyrimidin-5-yl)amino)-4-(ethyl(tetrahydro-2H-pyran-4-yl)amino)phenyl)-N-(methylsulfonyl)pentanamide]"
11,< 5 nM,"CCc1cnc(Nc2cc(C(CC)CC(=O)O)ccc2N(CC(C)C)C2CCCCC2)nc1 (single isomer, unassigned) [Example 302, 3-(4-(cyclohexyl(isobutyl)amino)-3-((5-ethylpyrimidin-2-yl)amino)phenyl)pentanoic acid]"
12,< 5 nM,"CC(CC(=O)O)c1ccc(N(CC(C)(C)O)C2CCOCC2)c(Nc2ccc(C#N)cc2)c1 (single isomer, unassigned) [Example 196, 3-(3-((4-Cyanophenyl)amino)-4-((2-hydroxy-2-methylpropyl)(tetrahydro-2H-pyran-4-yl)amino)phenyl)butanoic acid]"
13,< 5 nM,"CCC(CC(=O)O)c1cc(NC(=O)Nc2ccc(C)cc2F)c(N(CC(C)C)C2CCCCC2)cc1F (single isomer, unassigned) [Example 1120, 3-(4-(Cyclohexyl(isobutyl)amino)-2-fluoro-5-(3-(2-fluoro-4-methylphenyl)ureido)phenyl)pentanoic acid]"
14,< 50 nM,"COC(Cc1ccc(N(CC(C)C)C2CCCCC2)c(NC(=O)Nc2ccc(Cl)cc2F)c1)C(=O)O (centres unmarked) [Example 1012, 3-(3-(3-(4-Chloro-2-fluorophenyl)ureido)-4-(cyclohexyl(isobutyl)amino)phenyl)-2-methoxypropanoic acid]"
15,> 50 nM,"COc1ncc(Nc2cc(C(C)(C)CC(=O)O)ccc2N2C[C@@H](C)O[C@@H](C)C2)cn1 [Example 735, 3-(4-((2S,6R)-2,6-dimethylmorpholino)-3-((2-methoxypyrimidin-5-yl)amino)phenyl)-3-methylbutanoic acid]"
16,< 50 nM,"CC[C@H](CC(=O)O)c1ccc(N(CC)C2CCOCC2)c(NC(=O)Nc2ccc(Cl)nc2)c1 (single isomer, unassigned) [Example 532]"
17,> 50 nM,"CCN(c1ccc([C@H](COC)CC(=O)O)cc1NC(=O)Nc1ccc(OC)cc1F)C1CCOCC1 (single isomer, unassigned) [Example 435]"
18,< 5 nM,"CC[C@@H](CC(=O)O)c1ccc(N(CC(C)(C)O)C2CCOCC2)c(Nc2ccc3c(c2)OC(F)(F)O3)c1 (single isomer, unassigned) [Example 199]"

row,IC50,Structure (SMILES)
1,< 50 nM,"COCC(CC(=O)O)c1ccc(N(CC2CC2)C2CCOCC2)c(Nc2ccc3nc(C)sc3c2)c1 (single isomer, unassigned) [Example 680, 3-(4-((cyclopropylmethyl) (tetrahydro-2H-pyran-4-yl)amino)-3-((2-methylbenzo[d]thiazol-6-yl)amino)phenyl)-4-methoxybutanoic acid]"
2,> 50 nM,"CCC(CC(=O)O)c1ccc(N2CCOC[C@H]2C(C)C)c(NC(=O)Nc2cc(C)on2)c1 (single isomer, unassigned) [Example 898]"
3,> 50 nM,"CCOc1ccc(C(=O)Nc2cc(C(CC)CC(=O)O)ccc2N(CC(C)C)C2CCCCC2)cc1 (racemic) [Example 1073, 3-(4-(Cyclohexyl(isobutyl)amino)-3-(4-ethoxybenzamido)phenyl)pentanoic acid]"
4,> 50 nM,"COCC(CC(=O)OC)c1ccc(N(CC(C)C)C2CCCCC2)c(NC(=O)Nc2ccc(C)cc2)c1 (racemic) [Example 1223, (+/−)-Methyl 3-(4-(cyclohexyl(isobutyl)amino)-3-(3-(p-tolyl)ureido)phenyl)-4-methoxybutanoate]"
5,> 50 nM,"CC(C)CN(c1ccc(C(CC(=O)O)C2CC2)cc1NC(=O)Nc1cncnc1)C1CCOCC1 (racemic) [Example 1206, (+/−)-3-Cyclopropyl-3-(4-(isobutyl(tetrahydro-2H-pyran-4-yl)amino)-3-(3-(pyrimidin-5-yl)ureido)phenyl)propanoic acid]"
6,> 50 nM,"CCC(CC(=O)O)c1ccc(N2CC[C@H](O)C2)c(Nc2ccc(Cl)cc2)c1 (single isomer, unassigned) [Example 266]"
7,> 50 nM,"CCOc1ncc(Nc2cc(C(C)(C)CC(=O)O)ccc2N(CC)C2CCC(C)(O)CC2)cn1 (centres unmarked) [Example 3, 3-(3-((2-ethoxypyrimidin-5-yl)amino)-4-(ethyl(4-hydroxy-4-methylcyclohexyl)amino)phenyl)-3-methylbutanoic acid]"
8,< 50 nM,"COCC(CC(=O)O)c1ccc(N(CC(C)C)C2CCOCC2)c(NC(=O)Nc2ccc(C)cc2)c1 (single isomer, unassigned) [Example 1216, 3-(4-(Isobutyl(tetrahydro-2H-pyran-4-yl)amino)-3-(3-(p-tolyl)ureido)phenyl)-4-methoxybutanoic acid]"
9,< 5 nM,"CCC(CC(=O)O)c1cc(F)c(N(CC(C)C)CC(C)C)c(NC(=O)Nc2ccc(C)c(F)c2)c1 (single isomer, unassigned) [982-1]"
10,< 50 nM,"CCOc1ccc(NC(=O)Nc2cc(C(COC)CC(=O)O)ccc2N(CC(C)C)C2CCOCC2)c(F)c1 (single isomer, unassigned) [Example 1222, 3-(3-(3-(4-Ethoxy-2-fluorophenyl)ureido)-4-(isobutyl(tetrahydro-2H-pyran-4-yl)amino)phenyl)-4-methoxybutanoic acid]"
11,< 5 nM,"CCN(c1ccc(C(C)(C)CC(=O)O)cc1Nc1ccc(Cl)cc1)C1CCC(C)(O)CC1 (centres unmarked) [Example 1, 3-(3-((4-Chlorophenyl)amino)-4-(ethyl(4-hydroxy-4-methylcyclohexyl)amino)phenyl)-3-methylbutanoic acid]"
12,< 5 nM,"CCOc1ccc(NC(=O)Nc2cc(C(CC)CC(=O)O)c(F)cc2N(CC(C)C)CC(C)C)c(F)c1 (single isomer, unassigned) [Example 1138, 3-(4-(Diisobutylamino)-5-(3-(4-ethoxy-2-fluorophenyl)ureido)-2-fluorophenyl)pentanoic acid]"
13,< 50 nM,"CCOc1ncc(Nc2cc(C(CC)CC(=O)O)ccc2N2CCC[C@H]2C(C)(C)O)cn1 (single isomer, unassigned) [Example 823]"
14,> 50 nM,"CCOc1ccc(NC(=O)Nc2cc([C@@H](COC)CC(=O)O)ccc2N(CC)C2CCOCC2)cc1 (single isomer, unassigned) [Example 432]"
15,> 50 nM,"CCC(CC(=O)O)c1ccc(N2CCC[C@H]2C(C)(C)O)c(NC(=O)Nc2cc(C)on2)c1 (single isomer, unassigned) [Example 815]"
16,< 50 nM,"CCC(CC(=O)O)c1ccc(N2CCC[C@H]2C(C)(C)F)c(Nc2ccc3c(c2)OC(F)(F)O3)c1 (single isomer, unassigned) [Example 790]"
17,> 50 nM,"CC[C@@H](CC(=O)O)c1ccc(N(CC)C2CCOCC2)c(Nc2ccn3nc(C)c(F)c3n2)c1 (single isomer, unassigned) [Example 473]"
